This test deals with T1, human Nav1.7 (Homo sapiens, UniProt Q15858).
T1 construct: expressed in transfected cells
The test can be described thus: Assessment of Nav1.7 activity on PatchXpress (voltage dependence / slow inactivation parameters). The format is cell-based. The following applies: compound at 10 μM, relative to 0.2% DMSO vehicle control; for hNav1.7: Reduction in current at 20 mV (normalized data) Delta Ratio: before/after 30 sec conditioning pulse at 20 mV; for hNav1.7: Shift in voltage dependence of inactivation (mV) Delta Vhalf: PatchXpress. Put shortly: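 HEK293F cells stably co-expressing hNav1.7 and β1 were recorded by automated patch clamp in TEA-based external solution (50 mM NaCl, pH 7.4) with CsF internal solution (pH 7.2). A variable conditioning prepulse inactivated channels, followed by a brief hyperpolarizing step and a depolarizing test pulse. Compounds at 10 μM were compared with 0.2% DMSO vehicle across four parameters.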

19 compounds from patent US20170107203A1, “HETEROCYCLIC INHIBITORS OF THE SODIUM CHANNEL” (EPIRUS BIOPHARMACEUTICALS, INC., priority 2014, published 2017) can be followed below.

T1 sequence (Q15858 whole entry): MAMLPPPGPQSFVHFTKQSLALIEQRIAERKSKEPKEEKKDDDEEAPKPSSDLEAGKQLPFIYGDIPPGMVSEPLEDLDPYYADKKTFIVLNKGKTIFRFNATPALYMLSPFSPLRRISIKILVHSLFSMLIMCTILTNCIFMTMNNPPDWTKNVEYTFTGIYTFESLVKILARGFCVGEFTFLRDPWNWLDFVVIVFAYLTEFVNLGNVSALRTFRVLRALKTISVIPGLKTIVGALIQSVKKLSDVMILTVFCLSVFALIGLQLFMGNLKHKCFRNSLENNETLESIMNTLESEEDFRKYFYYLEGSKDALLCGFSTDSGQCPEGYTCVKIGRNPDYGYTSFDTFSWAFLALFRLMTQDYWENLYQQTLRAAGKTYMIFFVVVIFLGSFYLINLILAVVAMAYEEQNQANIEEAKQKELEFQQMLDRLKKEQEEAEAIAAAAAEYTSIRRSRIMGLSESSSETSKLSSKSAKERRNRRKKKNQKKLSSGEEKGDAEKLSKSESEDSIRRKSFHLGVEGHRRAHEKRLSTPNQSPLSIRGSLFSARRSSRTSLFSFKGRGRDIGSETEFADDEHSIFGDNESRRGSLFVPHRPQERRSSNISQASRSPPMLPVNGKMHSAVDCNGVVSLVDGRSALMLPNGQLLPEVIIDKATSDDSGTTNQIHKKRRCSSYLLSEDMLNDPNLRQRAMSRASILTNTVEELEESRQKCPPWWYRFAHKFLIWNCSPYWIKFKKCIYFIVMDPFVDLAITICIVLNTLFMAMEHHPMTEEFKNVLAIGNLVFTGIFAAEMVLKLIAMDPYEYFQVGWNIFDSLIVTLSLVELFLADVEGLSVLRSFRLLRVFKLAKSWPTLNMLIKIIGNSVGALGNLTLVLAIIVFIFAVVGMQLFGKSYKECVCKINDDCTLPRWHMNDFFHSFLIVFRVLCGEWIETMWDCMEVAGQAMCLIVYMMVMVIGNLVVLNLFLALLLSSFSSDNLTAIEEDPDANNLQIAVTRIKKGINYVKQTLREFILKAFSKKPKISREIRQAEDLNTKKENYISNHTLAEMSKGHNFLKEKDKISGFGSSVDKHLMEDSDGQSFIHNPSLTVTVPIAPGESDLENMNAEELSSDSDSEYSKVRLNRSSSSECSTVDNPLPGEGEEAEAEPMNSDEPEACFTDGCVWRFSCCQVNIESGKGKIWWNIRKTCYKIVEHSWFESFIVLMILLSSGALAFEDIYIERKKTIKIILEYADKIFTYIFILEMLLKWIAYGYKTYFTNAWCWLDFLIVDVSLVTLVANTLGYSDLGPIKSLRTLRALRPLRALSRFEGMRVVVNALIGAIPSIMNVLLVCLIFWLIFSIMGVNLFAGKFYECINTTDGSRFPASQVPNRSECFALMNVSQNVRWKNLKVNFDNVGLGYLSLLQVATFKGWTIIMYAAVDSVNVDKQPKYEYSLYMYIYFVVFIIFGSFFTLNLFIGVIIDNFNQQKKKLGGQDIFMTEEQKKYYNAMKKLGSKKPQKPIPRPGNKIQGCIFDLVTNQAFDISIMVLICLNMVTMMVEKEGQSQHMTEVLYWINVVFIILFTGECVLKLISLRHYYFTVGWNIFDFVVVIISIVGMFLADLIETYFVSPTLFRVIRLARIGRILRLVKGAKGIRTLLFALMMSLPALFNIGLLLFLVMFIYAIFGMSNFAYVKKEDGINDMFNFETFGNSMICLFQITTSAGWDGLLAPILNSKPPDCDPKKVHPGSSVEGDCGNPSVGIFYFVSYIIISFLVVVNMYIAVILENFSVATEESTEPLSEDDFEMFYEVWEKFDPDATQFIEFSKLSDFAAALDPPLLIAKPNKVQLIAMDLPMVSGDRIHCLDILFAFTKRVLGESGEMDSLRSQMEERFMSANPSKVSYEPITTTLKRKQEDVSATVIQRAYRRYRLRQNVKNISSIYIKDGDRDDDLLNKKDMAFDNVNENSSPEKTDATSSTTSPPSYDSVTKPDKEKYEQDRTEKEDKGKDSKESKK
T1 sequence (Q07699 19-218 partner): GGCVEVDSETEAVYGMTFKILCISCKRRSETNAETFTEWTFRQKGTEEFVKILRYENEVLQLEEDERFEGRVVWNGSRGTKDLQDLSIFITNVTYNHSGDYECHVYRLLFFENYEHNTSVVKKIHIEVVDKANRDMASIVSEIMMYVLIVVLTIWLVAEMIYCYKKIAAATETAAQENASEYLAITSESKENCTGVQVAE

Consider `FC(F)(F)c1cc(C(F)(F)F)c2[nH]c(C3NCc4ccccc43)nc2c1` (stereo not shown) [Compound 59, 2-(isoindolin-1-y)-4,6-bis(trifluoromethyl)-1H-benzo[d]imidazole], for which the “hNav1.7: Reduction in current at 20 mV (normalized data) Delta Ratio” value is reported as −0.2, the “hNav1.7: Voltage dependence of activation (mV) VDEP” value is recorded as −9 mV, the “hNav1.7: Voltage dependence of fast inactivation (mV) VDEP” value is −5.9 mV and the “hNav1.7: Shift in voltage dependence of inactivation (mV) Delta Vhalf” value (shortened to “hNav1.7: Shift … (mV) Delta Vhalf”) is recorded as −12.8 mV.

In the case of `CC(C)(c1nc2cc(C(F)(F)F)cc(C(F)(F)F)c2[nH]1)N1CCNCC1=O` [Compound 60, 1-(2-(4,6-bis(trifluoromethyl)-1H-benzo[d]imidazol-2-yl)propan-2-yl)piperazin-2-one], the “hNav1.7: Reduction in current at 20 mV (normalized data) Delta Ratio” value is −0.19, the “hNav1.7: Voltage dependence of activation (mV) VDEP” value is reported as −8.3 mV, the “hNav1.7: Voltage dependence of fast inactivation (mV) VDEP” value was −3.8 mV and the “hNav1.7: Shift … (mV) Delta Vhalf” value is −9.2 mV.

As to `O=C(CCc1nc2cc(C(F)(F)F)cc(C(F)(F)F)c2[nH]1)N1CCNCC1` [Compound 61, 3-(4,6-bis(trifluoromethyl)-1H-benzo[d]imidazol-2-yl)-1-(piperazin-1-yl)propan-1-one], the “hNav1.7: Reduction in current at 20 mV (normalized data) Delta Ratio” value was −0.19, the “hNav1.7: Voltage dependence of activation (mV) VDEP” value is recorded as −11.3 mV, the “hNav1.7: Voltage dependence of fast inactivation (mV) VDEP” value is on record as −5.1 mV and the “hNav1.7: Shift … (mV) Delta Vhalf” value was −9.2 mV.

In the case of `CC(C)(CC(=O)N1CCNCC1)c1nc2cc(C(F)(F)F)cc(C(F)(F)F)c2[nH]1` [Compound 62, 3-(4,6-bis(trifluoromethyl)-1H-benzo[d]imidazol-2-yl)-3-methyl-1-(piperazin-1-yl)butan-1-one], the “hNav1.7: Reduction in current at 20 mV (normalized data) Delta Ratio” value is recorded as −0.19, the “hNav1.7: Voltage dependence of activation (mV) VDEP” value was −7.4 mV, the “hNav1.7: Voltage dependence of fast inactivation (mV) VDEP” value is reported as −3.8 mV and the “hNav1.7: Shift … (mV) Delta Vhalf” value was −12.5 mV.

For the compound `O=C1CNCCN1Cc1nc2cc(Br)ccc2[nH]1` [Compound 63, 1-((6-bromo-1H-benzo[d]imidazol-2-yl)methyl)piperazin-2-one], the “hNav1.7: Reduction in current at 20 mV (normalized data) Delta Ratio” value is on record as −0.17, the “hNav1.7: Voltage dependence of activation (mV) VDEP” value is recorded as −8.1 mV, the “hNav1.7: Voltage dependence of fast inactivation (mV) VDEP” value is reported as −6.4 mV and the “hNav1.7: Shift … (mV) Delta Vhalf” value is recorded as −9.7 mV.

Take `CC(C)(c1nc2cc(F)cc(F)c2[nH]1)N1CCNCC1=O` [Compound 64, 1-(2-(4,6-difluoro-1H-benzo[d]imidazol-2-yl)propan-2-yl)piperazin-2-one]: the “hNav1.7: Reduction in current at 20 mV (normalized data) Delta Ratio” value is −0.16, the “hNav1.7: Voltage dependence of activation (mV) VDEP” value is listed as −7.1 mV, the “hNav1.7: Voltage dependence of fast inactivation (mV) VDEP” value was −5.9 mV and the “hNav1.7: Shift … (mV) Delta Vhalf” value is reported as −5.4 mV.

Consider `CC(C)(CN1CCNCC1=O)c1nc2cc(C(F)(F)F)cc(C(F)(F)F)c2[nH]1` [Compound 65, 1-(2-(4,6-bis(trifluoromethyl)-1H-benzo[d]imidazol-2-yl)-2-methylpropyl)piperazin-2-one], for which the “hNav1.7: Reduction in current at 20 mV (normalized data) Delta Ratio” value is on record as −0.16, the “hNav1.7: Voltage dependence of activation (mV) VDEP” value is −8.1 mV, the “hNav1.7: Voltage dependence of fast inactivation (mV) VDEP” value is reported as −6.2 mV and the “hNav1.7: Shift … (mV) Delta Vhalf” value is on record as −3.5 mV.

Take `O=C(CCc1nc2cc(F)cc(F)c2[nH]1)N1CCNCC1` [Compound 66, 3-(4,6-difluoro-1H-benzo[d]imidazol-2-yl)-1-(piperazin-1-yl)propan-1-one]: the “hNav1.7: Reduction in current at 20 mV (normalized data) Delta Ratio” value is recorded as −0.14, the “hNav1.7: Voltage dependence of activation (mV) VDEP” value is −14.5 mV, the “hNav1.7: Voltage dependence of fast inactivation (mV) VDEP” value is reported as −6.9 mV and the “hNav1.7: Shift … (mV) Delta Vhalf” value is reported as −12.0 mV.

Turning to `CC(C)(CC(=O)N1CCNCC1)c1nc2cc(F)cc(F)c2[nH]1` [Compound 67, 3-(4,6-difluoro-1H-benzo[d]imidazol-2-yl)-3-methyl-1-(piperazin-1-yl)butan-1-one], the “hNav1.7: Reduction in current at 20 mV (normalized data) Delta Ratio” value is listed as −0.13, the “hNav1.7: Voltage dependence of activation (mV) VDEP” value is −9.7 mV, the “hNav1.7: Voltage dependence of fast inactivation (mV) VDEP” value is −7.6 mV and the “hNav1.7: Shift … (mV) Delta Vhalf” value is reported as −7.8 mV.

With `O=C1CNCCN1CCCc1nc2cc(F)cc(F)c2[nH]1` [Compound 68, 1-(3-(4,6-difluoro-1H-benzo[d]imidazol-2-yl)propyl)piperazin-2-one], the “hNav1.7: Reduction in current at 20 mV (normalized data) Delta Ratio” value is given as −0.1, the “hNav1.7: Voltage dependence of activation (mV) VDEP” value is recorded as −11.6 mV, the “hNav1.7: Voltage dependence of fast inactivation (mV) VDEP” value was −4.9 mV and the “hNav1.7: Shift … (mV) Delta Vhalf” value is −11.4 mV.

For the compound `O=C1CNCCN1CCCc1nc2cc(C(F)(F)F)cc(C(F)(F)F)c2[nH]1` [Compound 69], the “hNav1.7: Reduction in current at 20 mV (normalized data) Delta Ratio” value is given as −0.09, the “hNav1.7: Voltage dependence of activation (mV) VDEP” value is −9.2 mV, the “hNav1.7: Voltage dependence of fast inactivation (mV) VDEP” value is given as −4.9 mV and the “hNav1.7: Shift … (mV) Delta Vhalf” value is −7.5 mV.

On to `CC(C)(CN1CCNCC1=O)c1nc2cc(F)cc(F)c2[nH]1` [Compound 70, 1-(2-(4,6-difluoro-1H-benzo[d]imidazol-2-yl)-2-methylpropyl)piperazin-2-one], for which the “hNav1.7: Reduction in current at 20 mV (normalized data) Delta Ratio” value is reported as −0.08, the “hNav1.7: Voltage dependence of activation (mV) VDEP” value is reported as −5.3 mV, the “hNav1.7: Voltage dependence of fast inactivation (mV) VDEP” value is listed as −5.7 mV and the “hNav1.7: Shift … (mV) Delta Vhalf” value is −4.6 mV.

For the compound `N[C@H](Cc1cccc(C(F)(F)F)c1)C(=O)NCc1nc2ccc(-c3ccc(F)c(Cl)c3)cc2[nH]1` [Compound 71, (R)-2-amino-N-((6-(3-chloro-4-fluorophenyl)-1H-benzo[d]imidazol-2-yl)methyl)-3-(3-(trifluoromethyl)phenyl)propanamide], the “hNav1.7: Reduction in current at 20 mV (normalized data) Delta Ratio” value was −0.07, the “hNav1.7: Voltage dependence of activation (mV) VDEP” value is reported as −10.5 mV, the “hNav1.7: Voltage dependence of fast inactivation (mV) VDEP” value is −6.3 mV and the “hNav1.7: Shift … (mV) Delta Vhalf” value is listed as −8.5 mV.

In the case of `CC(C)(C)OC(=O)N[C@H](Cc1cccc(C(F)(F)F)c1)C(=O)NCc1nc2ccc(Br)cc2[nH]1` [Compound 72, tert-butyl (R)-(1-(((6-bromo-1H-benzo[d]imidazol-2-yl)methyl)amino)-1-oxo-3-(3-(trifluoromethyl)phenyl)propan-2-yl)carbamate], the “hNav1.7: Reduction in current at 20 mV (normalized data) Delta Ratio” value was −0.07, the “hNav1.7: Voltage dependence of activation (mV) VDEP” value is listed as −3.3 mV, the “hNav1.7: Voltage dependence of fast inactivation (mV) VDEP” value is −7.3 mV and the “hNav1.7: Shift … (mV) Delta Vhalf” value is given as −6.7 mV.

For the compound `CC(C)(C)OC(=O)N[C@H](Cc1cccc(C(F)(F)F)c1)C(=O)NCc1nc2c(C(F)(F)F)cc(C(F)(F)F)cc2[nH]1` [Compound 73, tert-butyl (R)-(1-(((4,6-bis(trifluoromethyl)-1H-benzo[d]imidazol-2-yl)methyl)amino)-1-oxo-3-(3-(trifluoromethyl)phenyl)propan-2-yl)carbamate], the “hNav1.7: Reduction in current at 20 mV (normalized data) Delta Ratio” value is recorded as −0.07, the “hNav1.7: Voltage dependence of activation (mV) VDEP” value is reported as −12.5 mV, the “hNav1.7: Voltage dependence of fast inactivation (mV) VDEP” value is reported as −5.4 mV and the “hNav1.7: Shift … (mV) Delta Vhalf” value was −3.7 mV.

Take `N[C@H](Cc1cccc(C(F)(F)F)c1)C(=O)NCc1nc2ccc(Br)cc2[nH]1` [Compound 74, (R)-2-amino-N-((6-bromo-1H-benzo[d]imidazol-2-yl)methyl)-3-(3-(trifluoromethyl)phenyl)propanamide]: the “hNav1.7: Reduction in current at 20 mV (normalized data) Delta Ratio” value is given as −0.07, the “hNav1.7: Voltage dependence of activation (mV) VDEP” value is −3.7 mV, the “hNav1.7: Voltage dependence of fast inactivation (mV) VDEP” value is recorded as −8.8 mV and the “hNav1.7: Shift … (mV) Delta Vhalf” value is −7.4 mV.

`N[C@H](Cc1cccc(C(F)(F)F)c1)C(=O)NCc1nc2c(C(F)(F)F)cc(C(F)(F)F)cc2[nH]1` [Compound 75, (R)-2-amino-N-((4,6-bis(trifluoromethyl)-1H-benzo[d]imidazol-2-yl)methyl)-3-(3-(trifluoromethyl)phenyl)propanamide]: the “hNav1.7: Reduction in current at 20 mV (normalized data) Delta Ratio” value is listed as −0.06, the “hNav1.7: Voltage dependence of activation (mV) VDEP” value is −15.4 mV, the “hNav1.7: Voltage dependence of fast inactivation (mV) VDEP” value is listed as −3.7 mV and the “hNav1.7: Shift … (mV) Delta Vhalf” value is −2.3 mV.

In the case of `CC(C)(C)OC(=O)N[C@H](Cc1cccc(C(F)(F)F)c1)C(=O)NCc1nc2ccc(-c3ccc(F)c(Cl)c3)cc2[nH]1` [Compound 76, tert-butyl (R)-(1-(((6-(3-chloro-4-fluorophenyl)-1H-benzo[d]imidazol-2-yl)methyl)amino)-1-oxo-3-(3-(trifluoromethyl)phenyl)propan-2-yl)carbamate], the “hNav1.7: Reduction in current at 20 mV (normalized data) Delta Ratio” value is −0.06, the “hNav1.7: Voltage dependence of activation (mV) VDEP” value is listed as −11.4 mV, the “hNav1.7: Voltage dependence of fast inactivation (mV) VDEP” value was −3.9 mV and the “hNav1.7: Shift … (mV) Delta Vhalf” value was −0.3 mV.

On to `CN(Cc1nc2c(C(F)(F)F)cc(C(F)(F)F)cc2[nH]1)C(=O)CNC(C)(C)C` [Compound 77, N-((4,6-bis(trifluoromethyl)-1H-benzo[d]imidazol-2-yl)methyl)-2-(tert-butylamino)-N-methylacetamide], for which the “hNav1.7: Reduction in current at 20 mV (normalized data) Delta Ratio” value is recorded as −0.06, the “hNav1.7: Voltage dependence of activation (mV) VDEP” value was −2.2 mV, the “hNav1.7: Voltage dependence of fast inactivation (mV) VDEP” value is −5 mV and the “hNav1.7: Shift … (mV) Delta Vhalf” value is −0.3 mV.
